pEC50: −log10 of the molar value.
Target: T1, human FFAR1 (GPR40) (Homo sapiens, UniProt O14842)
T1 construct: Flag; expressed in transfected cells; host or cells: HEK293T
Experiment: NFAT-RE-based reporter gene activity assay (Dual-Glo luciferase) for GPR40 agonistic activity in co-transfected HEK293T cells
Type: cell-based
Conditions: 4-hour treatment; for Efficacy (%): class symbols
How it was run: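 Agonism read as NFAT-RE-driven firefly luciferase over Renilla control (Dual-Glo) after 4 h compound exposure, top concentration 1 µM, 10 half-log steps.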

T1 sequence (O14842 whole entry): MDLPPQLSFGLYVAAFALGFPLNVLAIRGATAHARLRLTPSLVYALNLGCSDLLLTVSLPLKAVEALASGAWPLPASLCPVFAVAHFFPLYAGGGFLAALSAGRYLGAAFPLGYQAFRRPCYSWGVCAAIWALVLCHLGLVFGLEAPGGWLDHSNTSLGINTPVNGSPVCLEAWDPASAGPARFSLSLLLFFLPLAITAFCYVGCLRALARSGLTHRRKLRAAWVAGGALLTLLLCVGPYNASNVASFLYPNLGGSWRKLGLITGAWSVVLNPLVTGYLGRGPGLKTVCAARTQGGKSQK

Row | Structure (SMILES) | pEC50 | Efficacy (%)
1 | COc1cccc(N2CCC(c3oc4cc(C(CC(=O)O)C5CC5)ccc4c3C(=O)Nc3nc4ccccc4s3)CC2)c1 (stereo not shown) [Compound 297] | 6.30 to 7.00 | †† (150 ≥ Efficacy (%) > 100)
2 | COc1cccc(N2CCC(c3oc4cc(C(CC(=O)O)C5CC5)ccc4c3C(=O)Nc3nc(C(C)(C)C)cs3)CC2)c1 (stereo not shown) [Compound 298] | 6.30 to 7.00 | †† (150 ≥ Efficacy (%) > 100)
3 | COc1cccc(N2CCC(c3oc4cc(C(CC(=O)O)C5CC5)ccc4c3C(=O)Nc3ncc(C(C)(C)C)s3)CC2)c1 (stereo not shown) [Compound 299] | 6.30 to 7.00 | †† (150 ≥ Efficacy (%) > 100)
4 | COc1cccc(N2CCC(c3oc4cc(C(CC(=O)O)C5CC5)ccc4c3C(=O)Nc3cc(C(C)(C)C)on3)CC2)c1 (stereo not shown) [Compound 300] | 6.30 to 7.00 | †† (150 ≥ Efficacy (%) > 100)
5 | COc1cccc(N2CCC(c3oc4cc(C(CC(=O)O)C5CC5)ccc4c3C(=O)Nc3cc(C(C)(C)C)no3)CC2)c1 (stereo not shown) [Compound 301] | 6.30 to 7.00 | †† (150 ≥ Efficacy (%) > 100)
6 | COc1cccc(N2CCC(c3oc4cc(C(CC(=O)O)C5CC5)ccc4c3C(=O)Nc3cc(-c4ccccc4)nn3C)CC2)c1 (stereo not shown) [Compound 302] | 6.30 to 7.00 | † (100 ≥ Efficacy (%) > 50)
7 | COc1cccc(N2CCC(c3oc4cc(C(CC(=O)O)C5CC5)ccc4c3C(=O)Nc3nccn3C)CC2)c1 (stereo not shown) [Compound 304] | 6.30 to 7.00 | ††† (Efficacy (%) > 150)
8 | COc1ccc(F)c(N2CCC(c3oc4cc(C(CC(=O)O)C5CC5)ccc4c3C(=O)NC(C)(C)C)CC2)c1 (stereo not shown) [Compound 305] | 6.30 to 7.00 | †† (150 ≥ Efficacy (%) > 100)
9 | COc1ccc(F)c(N2CCC(c3oc4cc(C(CC(=O)O)C5CC5)ccc4c3C(=O)NCC(C)(C)C)CC2)c1 (stereo not shown) [Compound 306] | 6.30 to 7.00 | †† (150 ≥ Efficacy (%) > 100)
10 | COc1ccc(F)c(N2CCC(c3oc4cc(C(CC(=O)O)C5CC5)ccc4c3C(=O)NCCC(C)(C)C)CC2)c1 (stereo not shown) [Compound 307] | 6.30 to 7.00 | †† (150 ≥ Efficacy (%) > 100)
11 | COc1ccc(F)c(N2CCC(c3oc4cc(C(CC(=O)O)C5CC5)ccc4c3C(=O)NC3CC3)CC2)c1 (stereo not shown) [Compound 308] | < 6.30 | †† (150 ≥ Efficacy (%) > 100)
12 | COc1ccc(F)c(N2CCC(c3oc4cc(C(CC(=O)O)C5CC5)ccc4c3C(=O)NCC3CC3)CC2)c1 (stereo not shown) [Compound 309] | 6.30 to 7.00 | †† (150 ≥ Efficacy (%) > 100)
13 | COc1ccc(F)c(N2CCC(c3oc4cc(C(CC(=O)O)C5CC5)ccc4c3C(=O)NCC(C)C)CC2)c1 (stereo not shown) [Compound 310] | 6.30 to 7.00 | †† (150 ≥ Efficacy (%) > 100)
14 | CCNC(=O)c1c(C2CCN(c3cc(OC)ccc3F)CC2)oc2cc(C(CC(=O)O)C3CC3)ccc12 (stereo not shown) [Compound 312] | 6.30 to 7.00 | † (100 ≥ Efficacy (%) > 50)
15 | COc1ccc(F)c(N2CCC(c3oc4cc(C(CC(=O)O)C5CC5)ccc4c3C(=O)Nc3ccccc3)CC2)c1 (stereo not shown) [Compound 314] | 6.30 to 7.00 | †† (150 ≥ Efficacy (%) > 100)
16 | COc1ccc(F)c(N2CCC(c3oc4cc(C(CC(=O)O)C5CC5)ccc4c3C(=O)Nc3ccc(C(C)(C)C)cc3)CC2)c1 (stereo not shown) [Compound 315] | 6.30 to 7.00 | †† (150 ≥ Efficacy (%) > 100)
17 | COc1ccc(F)c(N2CCC(c3oc4cc(C(CC(=O)O)C5CC5)ccc4c3C(=O)Nc3cccc(C(C)(C)C)c3)CC2)c1 (stereo not shown) [Compound 316] | 6.30 to 7.00 | †† (150 ≥ Efficacy (%) > 100)
18 | COc1ccc(F)c(N2CCC(c3oc4cc(C(CC(=O)O)C5CC5)ccc4c3C(=O)Nc3ccc(F)cc3)CC2)c1 (stereo not shown) [Compound 317] | 6.30 to 7.00 | † (100 ≥ Efficacy (%) > 50)

Row | Structure (SMILES) | pEC50 | Efficacy (%)
19 | COc1ccc(F)c(N2CCC(c3oc4cc(C(CC(=O)O)C5CC5)ccc4c3C(=O)Nc3ccccc3C)CC2)c1 (stereo not shown) [Compound 319] | 6.30 to 7.00 | †† (150 ≥ Efficacy (%) > 100)
20 | COc1ccc(F)c(N2CCC(c3oc4cc(C(CC(=O)O)C5CC5)ccc4c3C(=O)Nc3cccc(C)c3)CC2)c1 (stereo not shown) [Compound 320] | 7.00 to 8.00 | †† (150 ≥ Efficacy (%) > 100)
21 | COc1ccc(F)c(N2CCC(c3oc4cc(C(CC(=O)O)C5CC5)ccc4c3C(=O)Nc3ccc(C)cc3)CC2)c1 (stereo not shown) [Compound 321] | 6.30 to 7.00 | †† (150 ≥ Efficacy (%) > 100)
22 | COc1cccc(N2CCC(c3oc4cc([C@@H](CC(=O)O)C5CC5)ccc4c3C(=O)Nc3ccccc3Cl)CC2)c1F [Compound 322] | ≥ 8.00 | †† (150 ≥ Efficacy (%) > 100)
23 | COc1cccc(N2CCC(c3oc4cc([C@@H](CC(=O)O)C5CC5)ccc4c3C(=O)Nc3ccccc3F)CC2)c1F [Compound 323] | ≥ 8.00 | †† (150 ≥ Efficacy (%) > 100)
24 | COc1cccc(N2CCC(c3oc4cc([C@@H](CC(=O)O)C5CC5)ccc4c3C(=O)Nc3ccccc3C)CC2)c1F [Compound 324] | ≥ 8.00 | †† (150 ≥ Efficacy (%) > 100)
25 | COc1cccc(N2CCC(c3oc4cc([C@@H](CC(=O)O)C5CC5)ccc4c3C(=O)Nc3cccc(C)c3)CC2)c1F [Compound 325] | 6.30 to 7.00 | †† (150 ≥ Efficacy (%) > 100)
26 | CCC(c1ccccc1OC)N1CCC(c2oc3cc(C(CC(=O)O)C4CC4)ccc3c2C(=O)Nc2ccccc2F)CC1 (stereo not shown) [Compound 326] | 6.30 to 7.00 | †† (150 ≥ Efficacy (%) > 100)
27 | CC(c1ccccc1OC(F)(F)F)N1CCC(c2oc3cc(C(CC(=O)O)C4CC4)ccc3c2C(=O)Nc2ccccc2F)CC1 (stereo not shown) [Compound 327] | 6.30 to 7.00 | †† (150 ≥ Efficacy (%) > 100)
28 | COc1ccccc1C(C)N1CCC(c2oc3cc(C(CC(=O)O)C4CC4)ccc3c2C(=O)Nc2ccccc2F)CC1 (stereo not shown) [Compound 328] | < 6.30 | †† (150 ≥ Efficacy (%) > 100)
29 | Cc1ccccc1NC(=O)c1c(C2CCN(c3ccc4c(c3)OCO4)CC2)oc2cc([C@@H](CC(=O)O)C3CC3)ccc12 [Compound 330] | 7.00 to 8.00 | †† (150 ≥ Efficacy (%) > 100)
30 | O=C(O)C[C@H](c1ccc2c(C(=O)Nc3ccccc3F)c(C3CCN(c4ccc5c(c4)OCO5)CC3)oc2c1)C1CC1 [Compound 331] | 6.30 to 7.00 | †† (150 ≥ Efficacy (%) > 100)
31 | Cc1ccc(Cl)c(NC(=O)c2c(C3CCN(c4ccc5c(c4)OCO5)CC3)oc3cc([C@@H](CC(=O)O)C4CC4)ccc23)c1 [Compound 332] | ≥ 8.00 | †† (150 ≥ Efficacy (%) > 100)
32 | O=C(O)C[C@H](c1ccc2c(C(=O)Nc3cc(F)ccc3Cl)c(C3CCN(c4ccc5c(c4)OCO5)CC3)oc2c1)C1CC1 [Compound 333] | ≥ 8.00 | †† (150 ≥ Efficacy (%) > 100)
33 | O=C(O)C[C@H](c1ccc2c(C(=O)Nc3cc(F)ccc3Br)c(C3CCN(c4ccc5c(c4)OCO5)CC3)oc2c1)C1CC1 [Compound 334] | ≥ 8.00 | †† (150 ≥ Efficacy (%) > 100)
34 | O=C(O)C[C@H](c1ccc2c(C(=O)Nc3cc(C(F)(F)F)ccc3Cl)c(C3CCN(c4ccc5c(c4)OCO5)CC3)oc2c1)C1CC1 [Compound 335] | ≥ 8.00 | †† (150 ≥ Efficacy (%) > 100)
35 | CCc1ccc(Cl)c(NC(=O)c2c(C3CCN(c4ccc5c(c4)OCO5)CC3)oc3cc([C@@H](CC(=O)O)C4CC4)ccc23)c1 [Compound 337] | ≥ 8.00 | †† (150 ≥ Efficacy (%) > 100)

Source: patent EP4682145A1, “BENZOHETEROCYCLIC COMPOUND, AND PREPARATION METHOD THEREFOR AND USE THEREOF” (Cascade Pharmaceuticals, Inc., priority 2023, dated 2024)
